Test results from patent publication EP0454444A1, “Glutarimide derivatives and herbicides” (NISSAN CHEMICAL INDUSTRIES LTD., priority 1990, dated 1991).

What was measured:
Assay in all cases: Herbicidal effect test by soil treatment
Type in all cases: in vivo
[1] = system: annual sedge (Cyperus microiria); conditions: three weeks after spraying
Excerpt: (§1) In a plastic box of 15 cm length, 22 cm width and 6 cm depth, there was placed a sterilized dilvial soil, and seeds of barnyardgrass (Echinochloa crusgalli), large crabgrass (Digitaria adscendens), annual sedge (Cyperus microiria), black nightshade (Solanum nigrum L.), hairly galinosoga (Galinsoga ciliat), rorippa ssp. (Rorippa atrovirens), rice (Oryza sativa), corn (Zea mays), wheat (Triticum aestivum), soybean (Glysine max) and cotton (Gossypium herbaceum) were sown mixedly. After covering soil to about 1 cm over the seeds, herbicides were sprayed evenly on the soil surface to predetermined proportions of the active ingredient In spraying, the wettable powder, emulsifiable concentrate, dry flowable or flowable in the above formulation examples were diluted with water and sprayed over the entire surface by means of a small sprayer. Three weeks after spraying, the herbicidal effect on crop plants including rice, corn, wheat, soybean, cotton and various kinds of weeds were examined according to the judgement criteria shown below. Judgement criteria
(§2) The above growth control rates are determined by measuring the top fresh weights of the treated plants and those of the non-treated plants, and culculated from the following formula: [formula]

[2] = system: barnyardgrass (Echinochloa crusgalli); conditions: three weeks after spraying
Excerpt: as §1, §2

[3] = system: black nightshade (Solanum nigrum L.); conditions: three weeks after spraying
Excerpt: as §1, §2

corn (Zea mays) = conditions: crop plant, three weeks after spraying
Excerpt: as §1, §2

[4] = system: cotton (Gossypium herbaceum); conditions: crop plant, three weeks after spraying
Excerpt: as §1, §2

[5] = system: hairly galinosoga (Galinsoga ciliat); conditions: three weeks after spraying
Excerpt: as §1, §2

[6] = system: large crabgrass (Digitaria adscendens); conditions: three weeks after spraying
Excerpt: as §1, §2

rice (Oryza sativa) = conditions: crop plant, three weeks after spraying
Excerpt: as §1, §2

[7] = system: rorippa ssp. (Rorippa atrovirens); conditions: three weeks after spraying
Excerpt: as §1, §2

soybean (Glysine max) = conditions: crop plant, three weeks after spraying
Excerpt: as §1, §2

[8] = system: wheat (Triticum aestivum); conditions: crop plant, three weeks after spraying
Excerpt: as §1, §2

O=C1COc2cc(F)c(N3C(=O)CC(C(F)(F)F)CC3=O)cc2N1CC1CCCCC1 [1-28]
herbicidal effect, K (Cyperus microiria) ([1]; application amount 1.6 g/a): 5 (Growth control,rates of more than 90% (almost completely withered)) | herbicidal effect, N (Echinochloa crusgalli) ([2]; application amount 1.6 g/a): 5 (Growth control,rates of more than 90% (almost completely withered)) | herbicidal effect, H (Solanum nigrum L.) ([3]; application amount 1.6 g/a): 5 (Growth control,rates of more than 90% (almost completely withered)) | herbicidal effect, T (Zea mays) (corn (Zea mays); application amount 1.6 g/a): 0 (Growth control rates of less than 5% (substantially no effect)) | herbicidal effect, C (Gossypium herbaceum) ([4]; application amount 1.6 g/a): 0 (Growth control rates of less than 5% (substantially no effect)) | herbicidal effect, D (Galinsoga ciliat) ([5]; application amount 1.6 g/a): 5 (Growth control,rates of more than 90% (almost completely withered)) | herbicidal effect, M (Digitaria adscendens) ([6]; application amount 1.6 g/a): 5 (Growth control,rates of more than 90% (almost completely withered)) | herbicidal effect, R (Oryza sativa) (rice (Oryza sativa); application amount 1.6 g/a): 0 (Growth control rates of less than 5% (substantially no effect)) | herbicidal effect, I (Rorippa indica) ([7]; application amount 1.6 g/a): 5 (Growth control,rates of more than 90% (almost completely withered)) | herbicidal effect, S (Glysine max) (soybean (Glysine max); application amount 1.6 g/a): 0 (Growth control rates of less than 5% (substantially no effect)) | herbicidal effect, W (Triticum vulgare) ([8]; application amount 1.6 g/a): 2 (Growth control rates of 20 to 40%)

CCS(=O)(=O)Nc1cc(N2C(=O)CC(C(F)(F)F)CC2=O)c(F)cc1Cl [1-15]
herbicidal effect, K (Cyperus microiria) ([1]; application amount 1.6 g/a): 5 (Growth control,rates of more than 90% (almost completely withered)) | herbicidal effect, N (Echinochloa crusgalli) ([2]; application amount 1.6 g/a): 3 (Growth control rates of 40 to 70%) | herbicidal effect, H (Solanum nigrum L.) ([3]; application amount 1.6 g/a): 5 (Growth control,rates of more than 90% (almost completely withered)) | herbicidal effect, T (Zea mays) (corn (Zea mays); application amount 1.6 g/a): 0 (Growth control rates of less than 5% (substantially no effect)) | herbicidal effect, C (Gossypium herbaceum) ([4]; application amount 1.6 g/a): 0 (Growth control rates of less than 5% (substantially no effect)) | herbicidal effect, D (Galinsoga ciliat) ([5]; application amount 1.6 g/a): 5 (Growth control,rates of more than 90% (almost completely withered)) | herbicidal effect, M (Digitaria adscendens) ([6]; application amount 1.6 g/a): 5 (Growth control,rates of more than 90% (almost completely withered)) | herbicidal effect, R (Oryza sativa) (rice (Oryza sativa); application amount 1.6 g/a): 0 (Growth control rates of less than 5% (substantially no effect)) | herbicidal effect, I (Rorippa indica) ([7]; application amount 1.6 g/a): 5 (Growth control,rates of more than 90% (almost completely withered)) | herbicidal effect, S (Glysine max) (soybean (Glysine max); application amount 1.6 g/a): 0 (Growth control rates of less than 5% (substantially no effect)) | herbicidal effect, W (Triticum vulgare) ([8]; application amount 1.6 g/a): 0 (Growth control rates of less than 5% (substantially no effect))

CC1CC(=O)N(c2cc3c(cc2F)OCC(=O)N3)C(=O)C1 [1-22]
herbicidal effect, K (Cyperus microiria) ([1]; application amount 1.6 g/a): 5 (Growth control,rates of more than 90% (almost completely withered)) | herbicidal effect, N (Echinochloa crusgalli) ([2]; application amount 1.6 g/a): 5 (Growth control,rates of more than 90% (almost completely withered)) | herbicidal effect, H (Solanum nigrum L.) ([3]; application amount 1.6 g/a): 5 (Growth control,rates of more than 90% (almost completely withered)) | herbicidal effect, T (Zea mays) (corn (Zea mays); application amount 1.6 g/a): 0 (Growth control rates of less than 5% (substantially no effect)) | herbicidal effect, C (Gossypium herbaceum) ([4]; application amount 1.6 g/a): 0 (Growth control rates of less than 5% (substantially no effect)) | herbicidal effect, D (Galinsoga ciliat) ([5]; application amount 1.6 g/a): 5 (Growth control,rates of more than 90% (almost completely withered)) | herbicidal effect, M (Digitaria adscendens) ([6]; application amount 1.6 g/a): 5 (Growth control,rates of more than 90% (almost completely withered)) | herbicidal effect, R (Oryza sativa) (rice (Oryza sativa); application amount 1.6 g/a): 0 (Growth control rates of less than 5% (substantially no effect)) | herbicidal effect, I (Rorippa indica) ([7]; application amount 1.6 g/a): 5 (Growth control,rates of more than 90% (almost completely withered)) | herbicidal effect, S (Glysine max) (soybean (Glysine max); application amount 1.6 g/a): 0 (Growth control rates of less than 5% (substantially no effect)) | herbicidal effect, W (Triticum vulgare) ([8]; application amount 1.6 g/a): 0 (Growth control rates of less than 5% (substantially no effect))

C#CCN1C(=O)COc2cc(F)c(N3C(=O)CC(C(F)(F)F)CC3=O)cc21 [1-26]
herbicidal effect, K (Cyperus microiria) ([1]; application amount 0.4 g/a): 5 (Growth control,rates of more than 90% (almost completely withered)) | herbicidal effect, K (Cyperus microiria) ([1]; application amount 0.8 g/a): 5 (Growth control,rates of more than 90% (almost completely withered)) | herbicidal effect, K (Cyperus microiria) ([1]; application amount 1.6 g/a): 5 (Growth control,rates of more than 90% (almost completely withered)) | herbicidal effect, N (Echinochloa crusgalli) ([2]; application amount 0.4 g/a): 5 (Growth control,rates of more than 90% (almost completely withered)) | herbicidal effect, N (Echinochloa crusgalli) ([2]; application amount 0.8 g/a): 5 (Growth control,rates of more than 90% (almost completely withered)) | herbicidal effect, N (Echinochloa crusgalli) ([2]; application amount 1.6 g/a): 5 (Growth control,rates of more than 90% (almost completely withered)) | herbicidal effect, H (Solanum nigrum L.) ([3]; application amount 0.4 g/a): 5 (Growth control,rates of more than 90% (almost completely withered)) | herbicidal effect, H (Solanum nigrum L.) ([3]; application amount 0.8 g/a): 5 (Growth control,rates of more than 90% (almost completely withered)) | herbicidal effect, H (Solanum nigrum L.) ([3]; application amount 1.6 g/a): 5 (Growth control,rates of more than 90% (almost completely withered)) | herbicidal effect, T (Zea mays) (corn (Zea mays); application amount 0.4 g/a): 4 (Growth control rates of 70 to 90%) | herbicidal effect, T (Zea mays) (corn (Zea mays); application amount 0.8 g/a): 5 (Growth control,rates of more than 90% (almost completely withered)) | herbicidal effect, T (Zea mays) (corn (Zea mays); application amount 1.6 g/a): 5 (Growth control,rates of more than 90% (almost completely withered)) | herbicidal effect, C (Gossypium herbaceum) ([4]; application amount 0.4 g/a): 5 (Growth control,rates of more than 90% (almost completely withered)) | herbicidal effect, C (Gossypium herbaceum) ([4]; application amount 0.8 g/a): 5 (Growth control,rates of more than 90% (almost completely withered)) | herbicidal effect, C (Gossypium herbaceum) ([4]; application amount 1.6 g/a): 5 (Growth control,rates of more than 90% (almost completely withered)) | herbicidal effect, D (Galinsoga ciliat) ([5]; application amount 0.4 g/a): 5 (Growth control,rates of more than 90% (almost completely withered)) | herbicidal effect, D (Galinsoga ciliat) ([5]; application amount 0.8 g/a): 5 (Growth control,rates of more than 90% (almost completely withered)) | herbicidal effect, D (Galinsoga ciliat) ([5]; application amount 1.6 g/a): 5 (Growth control,rates of more than 90% (almost completely withered)) | herbicidal effect, M (Digitaria adscendens) ([6]; application amount 0.4 g/a): 5 (Growth control,rates of more than 90% (almost completely withered)) | herbicidal effect, M (Digitaria adscendens) ([6]; application amount 0.8 g/a): 5 (Growth control,rates of more than 90% (almost completely withered)) | herbicidal effect, M (Digitaria adscendens) ([6]; application amount 1.6 g/a): 5 (Growth control,rates of more than 90% (almost completely withered)) | herbicidal effect, R (Oryza sativa) (rice (Oryza sativa); application amount 0.4 g/a): 5 (Growth control,rates of more than 90% (almost completely withered)) | herbicidal effect, R (Oryza sativa) (rice (Oryza sativa); application amount 0.8 g/a): 5 (Growth control,rates of more than 90% (almost completely withered)) | herbicidal effect, R (Oryza sativa) (rice (Oryza sativa); application amount 1.6 g/a): 5 (Growth control,rates of more than 90% (almost completely withered)) | herbicidal effect, I (Rorippa indica) ([7]; application amount 0.4 g/a): 5 (Growth control,rates of more than 90% (almost completely withered)) | herbicidal effect, I (Rorippa indica) ([7]; application amount 0.8 g/a): 5 (Growth control,rates of more than 90% (almost completely withered)) | herbicidal effect, I (Rorippa indica) ([7]; application amount 1.6 g/a): 5 (Growth control,rates of more than 90% (almost completely withered)) | herbicidal effect, S (Glysine max) (soybean (Glysine max); application amount 0.4 g/a): 0 (Growth control rates of less than 5% (substantially no effect)) | herbicidal effect, S (Glysine max) (soybean (Glysine max); application amount 0.8 g/a): 2 (Growth control rates of 20 to 40%) | herbicidal effect, S (Glysine max) (soybean (Glysine max); application amount 1.6 g/a): 4 (Growth control rates of 70 to 90%) | herbicidal effect, W (Triticum vulgare) ([8]; application amount 0.4 g/a): 4 (Growth control rates of 70 to 90%) | herbicidal effect, W (Triticum vulgare) ([8]; application amount 0.8 g/a): 5 (Growth control,rates of more than 90% (almost completely withered)) | herbicidal effect, W (Triticum vulgare) ([8]; application amount 1.6 g/a): 5 (Growth control,rates of more than 90% (almost completely withered))

CC(C)OC(=O)c1cc(N2C(=O)CC(C(C)C)C(C)C2=O)c(F)cc1Cl (centres unmarked) [1-5]
herbicidal effect, K (Cyperus microiria) ([1]; application amount 1.6 g/a): 5 (Growth control,rates of more than 90% (almost completely withered)) | herbicidal effect, N (Echinochloa crusgalli) ([2]; application amount 1.6 g/a): 4 (Growth control rates of 70 to 90%) | herbicidal effect, H (Solanum nigrum L.) ([3]; application amount 1.6 g/a): 5 (Growth control,rates of more than 90% (almost completely withered)) | herbicidal effect, T (Zea mays) (corn (Zea mays); application amount 1.6 g/a): 0 (Growth control rates of less than 5% (substantially no effect)) | herbicidal effect, C (Gossypium herbaceum) ([4]; application amount 1.6 g/a): 0 (Growth control rates of less than 5% (substantially no effect)) | herbicidal effect, D (Galinsoga ciliat) ([5]; application amount 1.6 g/a): 5 (Growth control,rates of more than 90% (almost completely withered)) | herbicidal effect, M (Digitaria adscendens) ([6]; application amount 1.6 g/a): 5 (Growth control,rates of more than 90% (almost completely withered)) | herbicidal effect, R (Oryza sativa) (rice (Oryza sativa); application amount 1.6 g/a): 1 (Growth control rates of 5 to 20%) | herbicidal effect, I (Rorippa indica) ([7]; application amount 1.6 g/a): 5 (Growth control,rates of more than 90% (almost completely withered)) | herbicidal effect, S (Glysine max) (soybean (Glysine max); application amount 1.6 g/a): 0 (Growth control rates of less than 5% (substantially no effect)) | herbicidal effect, W (Triticum vulgare) ([8]; application amount 1.6 g/a): 1 (Growth control rates of 5 to 20%)
